Laboratory results: patent publication US12441695B2, “Substituted thiadiazinone dioxide and preparation method therefor, herbicidal composition, and application therefor” (Qingdao Kingagroot Chemical Compound Co., Ltd., priority 2019, dated 2025)

Tests used:
[1] = test system: monocotyledonous and dicotyledonous weeds; test: Experiment on weeding effect in post-emergence stage (weeds); assay type: in vivo; details: 600 g/ha active ingredient plus water 450 kg/ha, 3 weeks after application, fresh weight control rate; for Amaranthus retroflexus activity level (growth control rate): fomesafen-resistant Amaranthus retroflexus
Method in brief: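 Greenhouse pot-grown weeds and crops sprayed post-emergence 2–3 weeks after sowing with compound in acetone/Tween 80/water. Fresh-weight growth control scored after 3 weeks on a 0–5 scale (5: >85%, 0: <5%).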

[2] = test system: major crops (wheat, corn, rice, soybean, cotton, oilseed rape, millet, sorghum); test: Experiment on weeding effect in post-emergence stage (crops); assay type: in vivo; details: 600 g/ha active ingredient plus water 450 kg/ha, 3 weeks after application; for corn plant damage level (growth control rate): crop corn; for rice plant damage level (growth control rate): crop rice; for soybean plant damage level (growth control rate): crop soybean
Method in brief: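 Weed and crop seeds were sown in soil-filled pots, covered with 0.5–2 cm soil and grown in a greenhouse. Plants were sprayed 2–3 weeks after sowing using a spray tower, with compound dissolved in acetone plus Tween 80 and diluted in water. Effect was expressed as fresh-weight growth control rate.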

Structure (SMILES)	Amaranthus retroflexus activity level (growth control rate) [1]	Digitaria sanguinalis activity level (growth control rate) [1]	Echinochloa crus-galli activity level (growth control rate) [1]	Setaria viridis activity level (growth control rate) [1]	corn plant damage level (growth control rate) [2]	rice plant damage level (growth control rate) [2]	soybean plant damage level (growth control rate) [2]
CC(=O)N1c2c(F)cc(F)cc2C(=O)N(C(C)C)S1(=O)=O [Compound 150]	5 (Level 5: growth control rate is above 85%)	5 (Level 5: growth control rate is above 85%)	5 (Level 5: growth control rate is above 85%)	5 (Level 5: growth control rate is above 85%)	1 (Level 1: growth control rate is greater than or equal to 500 and less than 200%)	1 (Level 1: growth control rate is greater than or equal to 500 and less than 200%)	1 (Level 1: growth control rate is greater than or equal to 500 and less than 200%)
CCOC(=O)OC(C)N1c2c(F)cc(F)cc2C(=O)N(C(C)C)S1(=O)=O (centres unmarked) [Compound 151]	5 (Level 5: growth control rate is above 85%)	5 (Level 5: growth control rate is above 85%)	5 (Level 5: growth control rate is above 85%)	5 (Level 5: growth control rate is above 85%)	1 (Level 1: growth control rate is greater than or equal to 500 and less than 200%)	1 (Level 1: growth control rate is greater than or equal to 500 and less than 200%)	1 (Level 1: growth control rate is greater than or equal to 500 and less than 200%)
CC(=O)N1c2c(Cl)cc(F)cc2C(=O)N(C(C)C)S1(=O)=O [Compound 152]	5 (Level 5: growth control rate is above 85%)	5 (Level 5: growth control rate is above 85%)	5 (Level 5: growth control rate is above 85%)	5 (Level 5: growth control rate is above 85%)	0 (Level 0: growth control rate is less than 5%)	0 (Level 0: growth control rate is less than 5%)	1 (Level 1: growth control rate is greater than or equal to 500 and less than 200%)
CCOC(=O)OC(C)N1c2c(Cl)cc(F)cc2C(=O)N(C(C)C)S1(=O)=O (centres unmarked) [Compound 153]	5 (Level 5: growth control rate is above 85%)	5 (Level 5: growth control rate is above 85%)	5 (Level 5: growth control rate is above 85%)	5 (Level 5: growth control rate is above 85%)	0 (Level 0: growth control rate is less than 5%)	0 (Level 0: growth control rate is less than 5%)	1 (Level 1: growth control rate is greater than or equal to 500 and less than 200%)
CC(=O)N1c2c(Br)cc(F)cc2C(=O)N(C(C)C)S1(=O)=O [Compound 154]	5 (Level 5: growth control rate is above 85%)	5 (Level 5: growth control rate is above 85%)	5 (Level 5: growth control rate is above 85%)	5 (Level 5: growth control rate is above 85%)	0 (Level 0: growth control rate is less than 5%)	0 (Level 0: growth control rate is less than 5%)	1 (Level 1: growth control rate is greater than or equal to 500 and less than 200%)
